From ChEMBL document CHEMBL1133627, “4-Anilino-6,7-dialkoxyquinoline-3-carbonitrile inhibitors of epidermal growth factor receptor kinase and their bioisosteric relationship to the 4-anilino-6,7-dialkoxyquinazoline inhibitors” (J Med Chem, 2000)

Assays:
A-431 = test: Concentration needed to inhibit 50% growth of the human A431 (epidermoid carcinoma) cell lines; type: functional, cell-based
[1] = target: Epidermal growth factor receptor and ErbB2 (HER1 and HER2) (Homo sapiens, UniProt P04626+P00533); test: Concentration needed to inhibit the autophosphorylation of the cytoplasmic domain of Epidermal growth factor receptor using DELFIA/time-resolved fluorimetry.; type: protein assay
SK-BR-3 = test: Concentration needed to inhibit 50% growth of human SKBr3 (breast carcinoma) cell lines; type: functional, cell-based
SW-620 = test: Concentration needed to inhibit 50% growth of human SW620 (colon carcinoma) cell lines; type: functional, cell-based

Row | IC50 (A-431) | IC50 [1] | IC50 (SK-BR-3) | IC50 (SW-620) | SMILES
1 | 0.11 µM | 0.42 µM | 0.09 µM | 0.16 µM | CCOc1cc2ncc(C#N)c(Nc3cccc(Br)c3)c2cc1OCC
2 | 0.59 µM | 0.18 µM | 1.76 µM | 7.06 µM | COc1cc2ncc(C#N)c(Nc3cccc(Cl)c3)c2cc1OC
3 | 4.35 µM | 62.32 µM | 6.74 µM | 3.8 µM | COc1cc2ncc(C#N)c(Nc3cccc(C(C)C)c3)c2cc1OC
4 | 6.62 µM | 0.82 µM | 2.45 µM | 14.3 µM | COc1cc2ncc(C#N)c(Nc3cccc(N)c3)c2cc1OC
5 | 0.73 µM | 0.62 µM | 1.38 µM | 3.09 µM | COc1cc2ncc(C#N)c(Nc3ccc(Br)c(C)c3)c2cc1OC
6 | 0.57 µM | 21.19 µM | 0.64 µM | 4.24 µM | CCOc1cc2c(Nc3cccc(Br)c3)c(C#N)cnc2cc1OC
7 | 1.52 µM | 6.36 µM | 0.95 µM | 7.8 µM | COc1cc2ncc(C#N)c(Nc3cccc(O)c3)c2cc1OC
8 | 3.51 µM | 14.18 µM | 26 µM | 43.3 µM | COc1cc2ncc(C#N)c(Nc3cccc(C#N)c3)c2cc1OC
9 | 0.78 µM |  | 0.48 µM | 3.72 µM | COc1cc2ncc(C#N)c(Nc3cccc(Br)c3)c2cc1OC
10 | 14.5 µM | 6.75 µM | 14.2 µM | 9.79 µM | COCOc1cc2ncc(C#N)c(Nc3cccc(Br)c3)c2cc1OCOC
11 | 0.75 µM | 1.79 µM | 0.55 µM | 2.89 µM | COc1cc2ncc(C#N)c(Nc3ccc(C)c(Br)c3)c2cc1OC
12 | 0.42 µM | > 104.7 µM | 0.27 µM | 0.43 µM | N#Cc1cnc2cc3c(cc2c1Nc1cccc(Br)c1)OCCO3
13 | 0.14 µM | 33.02 µM | 0.06 µM | 0.06 µM | CCOc1cc2ncc(C#N)c(Nc3cccc(Br)c3)c2cc1OC
14 | 1.45 µM | 0.76 µM | 1.54 µM | 4.98 µM | COc1cc2ncc(C#N)c(Nc3cccc(SC)c3)c2cc1OC.Cl
15 | 5.91 µM | 7.69 µM | 8.44 µM | 6.29 µM | COc1cc2ncc(C#N)c(Nc3cccc(C(N)=O)c3)c2cc1OC
16 | 0.27 µM | 0.98 µM | 0.49 µM | 0.49 µM | CCOc1cc2ncc(C#N)c(Nc3ccc(F)c(Cl)c3)c2cc1OCC
17 | 7.91 µM | > 102.2 µM | 15.4 µM | 23.2 µM | COc1cc2ncc(CO)c(Nc3cccc(Br)c3)c2cc1OC

The next lines start with the compound.

Row | SMILES | IC50 (A-431) | IC50 [1] | IC50 (SK-BR-3) | IC50 (SW-620)
18 | COc1cc2c(C#N)cnc(Nc3cccc(Cl)c3)c2cc1OC | 26.1 µM | 88.29 µM | 27.7 µM | 64.5 µM
19 | COc1cc2ncc(C=O)c(Nc3cccc(Br)c3)c2cc1OC | 1.95 µM | 3.37 µM | 2.97 µM | 5.24 µM
20 | COc1cc2ncc(C#N)c(Nc3ccc(C)c(Cl)c3)c2cc1OC | 0.93 µM | 1.48 µM | 0.94 µM | 25 µM
21 | COc1cc2ncc(C#N)c(Nc3ccccc3Br)c2cc1OC | 21 µM | 4.18 µM | 0.8 µM | 17 µM
22 | COc1cc2ncc(C#N)c(Nc3ccc(O)c(Cl)c3)c2cc1OC | 3.01 µM | 9.04 µM | 1.29 µM | 2.75 µM
23 | COc1cc2ncc(C#N)c(Nc3ccc(Cl)cc3F)c2cc1OC | 0.818 µM | 13.85 µM | 0.54 µM | 5.34 µM
24 | COc1cc2ncc(C#N)c(Nc3cccc(Br)c3C)c2cc1OC | 3.64 µM | 0.84 µM | 0.39 µM | 11.8 µM
25 | COc1cc2ncc(C#N)c(Nc3ccc(Br)cc3F)c2cc1OC.Cl | 0.89 µM | > 91.2 µM | 1.69 µM | 19.2 µM
26 | COc1cc2ncc(C#N)c(Nc3cccc(NC(C)=O)c3)c2cc1OC | 2.62 µM | 69.4 µM | 1.55 µM | 2.74 µM
27 | N#Cc1cnc2cc3c(cc2c1Nc1cccc(Br)c1)OCCCO3 | 2.08 µM | 5.15 µM | 5.07 µM | 2.9 µM
28 | COc1cc2ncc(C#N)c(Nc3cc(Cl)c(O)c(Cl)c3)c2cc1OC | 3.14 µM | 3.15 µM | 2.02 µM | 3.43 µM
29 | COc1cc2ncc(C#N)c(Nc3ccc(F)cc3)c2cc1OC | 1.43 µM | 47.94 µM | 0.74 µM | 2.87 µM
30 | CCOC(=O)c1cnc2cc(OC)c(OC)cc2c1Nc1cccc(Br)c1 | 3.01 µM | > 81.3 µM | 6.21 µM | 6.93 µM
31 | COc1cc2ncc(C(=O)O)c(Nc3cccc(Br)c3)c2cc1OC | 18.2 µM | 34.22 µM | 35.7 µM | 53.8 µM
